From patent US6620839B2, “1,3-disubstituted and 1,3,3-trisubstituted pyrrolidines as histamine-3 receptor ligands and their therapeutic applications” (Abbott Laboratories, priority 2000, dated 2003)

target: T1, histamine-3 receptor (Rattus norvegicus, UniProt Q9QYN8); assay: Histamine-3 receptor binding, (3H)-N-α-methylhistamine displacement in rat cortical membranes; conditions: male Sprague-Dawley rat brain cortical membranes; (3H)-N-α-methylhistamine ~0.6 nM; 30 minutes at 25° C.; Cheng-Prusoff
T1 construct: from tissue; host or cells: male Sprague-Dawley rat brain cortex membranes
Procedure, shortened: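 Male Sprague-Dawley rat cortical membranes incubated 30 min at 25 °C with compound dilutions and [3H]-N-α-methylhistamine. Nonspecific binding defined with 3 μM thioperamide. Filtration and scintillation counting used; Ki from Hill transformation and Cheng-Prusoff equation.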

T1 sequence (Q9QYN8 whole entry): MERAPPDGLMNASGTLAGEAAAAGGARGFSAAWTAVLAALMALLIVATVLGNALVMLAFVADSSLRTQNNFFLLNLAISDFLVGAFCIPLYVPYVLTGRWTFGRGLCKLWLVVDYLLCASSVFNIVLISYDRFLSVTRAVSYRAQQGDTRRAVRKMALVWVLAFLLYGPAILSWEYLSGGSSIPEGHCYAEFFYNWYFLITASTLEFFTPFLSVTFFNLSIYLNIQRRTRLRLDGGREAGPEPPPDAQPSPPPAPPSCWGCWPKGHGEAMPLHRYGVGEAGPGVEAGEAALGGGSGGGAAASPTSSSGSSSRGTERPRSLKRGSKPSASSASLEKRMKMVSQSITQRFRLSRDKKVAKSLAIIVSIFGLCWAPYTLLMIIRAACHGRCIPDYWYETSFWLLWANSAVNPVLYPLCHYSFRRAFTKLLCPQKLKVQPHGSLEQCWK

| Compound | Ki [nM] |
| --- | --- |
| N#Cc1ccc(-c2ccc(OCCCN3CC[C@@H](NS(=O)(=O)c4cc(C(F)(F)F)cc(C(F)(F)F)c4)C3)cc2)cc1 [Example 38] | 132 |
| O=C(c1ccc(OCCCN2CC[C@@H](NS(=O)(=O)c3ccc(Br)cc3)C2)cc1)C1CC1 [Example 56, 4-bromo-N-((3R)-1-{3-[4-(cyclopropylcarbonyl)phenoxy]propyl}pyrrolidinyl)benzenesulfonamide] | 4.7 |
| COc1ccc(S(=O)(=O)N[C@@H]2CCN(CCCOc3ccc(C(=O)C4CC4)cc3)C2)cc1 [Example 59, N-((3R)-1-{3-[4-(cyclopropylcarbonyl)phenoxy]propyl}pyrrolidinyl)-4-methoxybenzenesulfonamide] | 3 |
| Cc1cc(C#N)ccc1-c1ccc(OCCCN2CC[C@@H](N(C)C)C2)cc1 [Example 165, 4′-{3-[(3R)-3-(dimethylamino)-1-pyrrolidinyl]propoxy}-2-methyl-1,1′-biphenyl-4-carbonitrile] | 17 |
| CN(C)[C@@H]1CCN(CCCOc2ccc(-c3ccc(C#N)cc3)cc2F)C1 [Example 167, 4′-{3-[(3R)-3-(dimethylamino)-1-pyrrolidinyl]propoxy}-3′-fluoro-1,1′-biphenyl-4-carbonitrile] | 9 |
| N#Cc1ccc(-c2ccc(OCCCN3CC[C@@H](N(C(=O)N4CCCC4)C(=O)N4CCCC4)C3)cc2)cc1 [Example 149] | 329 |

Other lines, results leading:

| Ki [nM] | Compound |
| --- | --- |
| 196 | CC(C)(C)NC(=O)N[C@@H]1CCN(CCCOc2ccc(-c3ccc(C#N)cc3)cc2)C1 [Example 137, N-(tert-butyl)-N′-((3R)-1-{3-[(4′-cyano[1,1′-biphenyl]-4-yl)oxy]propyl}pyrrolidinyl)urea] |
| 65 | CCC(C)(C)OC(=O)N(C)[C@@H]1CCN(CCCOc2ccc(-c3ccc(C#N)cc3)cc2)C1 [Example 114, tert-pentyl (3R)-1-{3-[(4′-cyano[1,1′-biphenyl]-4-yl)oxy]propyl}pyrrolidinyl(methyl)carbamate] |
| 18 | CCc1ccc(S(=O)(=O)N[C@@H]2CCN(CCCOc3ccc(-c4ccc(C#N)cc4)cc3)C2)cc1 [Example 27] |
| 13 | Cn1cnc(S(=O)(=O)N[C@@H]2CCN(CCCOc3ccc(-c4ccc(C#N)cc4)cc3)C2)c1 [Example 35] |
| 8.8 | COc1ccc(S(=O)(=O)N[C@@H]2CCN(CCCOc3ccc(-c4ccc(C#N)cc4)cc3)C2)cc1OC [Example 42] |
| 118 | N#Cc1ccc(-c2ccc(OCCCN3CC[C@@H](NC(=O)N4CCOCC4)C3)cc2)cc1 [Example 138] |
| 12 | Cc1ccc(S(=O)(=O)N[C@@H]2CCN(CCCOc3ccc(-c4ccc(C#N)cc4)cc3)C2)cc1 [Example 22] |
